Test results published in PubChem BioAssay (NCI).
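Step 1: Grow cells in 96-well plates. Step 2: Expose to compound for 48 hours at 5 concentrations. Step 3: Interpolate endpoints linearly; if unreached, use highest concentration. GI50: concentration for 50% inhibition of growth. TGI: concentration producing complete growth inhibition.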

How the values were obtained:
Test in all cases: inhibition of tumour cell growth, NCI panel, 48 h
A498 renal = system: A498 renal
A549 NSCLC = system: A549 NSCLC
CAKI-1 renal = system: CAKI-1 renal
HOP-62 NSCLC = system: HOP-62 NSCLC
K-562 leukemia = system: K-562 leukemia
KM12 colon = system: KM12 colon
NCI-H460 lung = system: NCI-H460 lung
SK-MEL-2 melanoma = system: SK-MEL-2 melanoma
UACC-257 melanoma = system: UACC-257 melanoma
UACC-62 melanoma = system: UACC-62 melanoma

| Compound | GI50 (A498 renal) [µM] | TGI (A498 renal) [µM] | GI50 (A549 NSCLC) [µM] | TGI (A549 NSCLC) [µM] | GI50 (CAKI-1 renal) [µM] | TGI (CAKI-1 renal) [µM] | GI50 (HOP-62 NSCLC) [µM] | TGI (HOP-62 NSCLC) [µM] | GI50 (K-562 leukemia) [µM] | TGI (K-562 leukemia) [µM] | GI50 (KM12 colon) [µM] | TGI (KM12 colon) [µM] | GI50 (NCI-H460 lung) [µM] | TGI (NCI-H460 lung) [µM] | GI50 (SK-MEL-2 melanoma) [µM] | TGI (SK-MEL-2 melanoma) [µM] | GI50 (UACC-257 melanoma) [µM] | TGI (UACC-257 melanoma) [µM] | GI50 (UACC-62 melanoma) [µM] | TGI (UACC-62 melanoma) [µM] |
| --- | --- | --- | --- | --- | --- | --- | --- | --- | --- | --- | --- | --- | --- | --- | --- | --- | --- | --- | --- | --- |
| O=c1c2c(=NCCN3CCCC3)cc3c(=O)n(CCCN4CCOCC4)c(=O)c4c(-c5ccc(CN6CCCC6)cc5)cc(c(O)n1CCCN1CCOCC1)c2c4-3 | 0.0381 | 0.155 | 0.0288 | 1.39 | 0.0346 | 0.651 | 0.0255 | 0.221 | 0.0195 | > 100 | 0.0661 | 0.841 | 0.0247 | 0.245 | 0.112 | 0.382 | 0.194 | 1.33 | 0.08 | 0.239 |
| CCOC(=O)c1ccc(NC(=O)Nc2nncs2)cc1 | 0.23 | 0.978 | 0.41 | 26.1 | 0.427 | > 47 | 0.237 | 15.6 | 0.0754 | > 46.6 | 0.136 | 11.8 | 0.379 | 14.1 | 0.734 | 24 | 1.43 | > 85.1 | 0.0761 | 26.4 |
| Cc1nc2ccc(Nc3nc(Cl)nc(N4CCOCC4)n3)cc2n1Cc1ccccc1 | 2.85 | > 100 | 50.3 | > 100 | 20.2 | > 100 | 16.2 | > 100 | 2.82 | > 100 | > 100 | > 100 | 11.9 | > 100 | 3.54 | 26 | 5.93 | > 100 | 3.43 | 22.9 |
| C/C(=N\NC(=S)N1CCCCC1)c1ccccn1 | 0.228 | 2.32 | 0.0235 | 4.14 | 0.103 | 5.22 | < 0.016 | 3.54 | < 0.01 | 8.76 | 0.0634 | 4.72 | < 0.0151 | 1.5 | 0.702 | 3.8 | < 0.01 | 0.442 | 0.106 | 3.93 |
| O=Nc1ccc(O)c(=O)cc1 | 4.89 | 28.6 | 12.3 | 68.9 | 0.936 | 5.8 | 7.45 | 23.2 | 0.498 | > 100 | 5.99 | 16.3 | 4.76 | 23.5 | 2.61 | 5.89 | 2.26 | 7.86 | 2.01 | 5.68 |
| COc1ccc2c(c1OC)C[C@@H]1c3c(cc4c(c3-2)OCO4)CCN1C | – | 63.5 | – | > 100 | – | > 100 | – | > 100 | – | 56.6 | – | > 100 | – | 91.4 | – | 88.7 | – | 61 | – | 43.8 |
| COc1cc(Nc2nc3cc(N)cc(N)c3nc2-c2ccccc2)cc(OC)c1OC | 31.3 | > 100 | 29.8 | > 100 | 15.5 | 48.5 | 16.3 | 34.3 | 12.5 | 40.1 | 10.6 | 29.5 | 17.1 | 52.8 | 15.9 | 35.2 | 29.6 | > 100 | 13.6 | 31.8 |
| CC(C)OP(=O)(OC(C)C)/C(Cl)=N/Nc1ccc([N+](=O)[O-])cc1 | – | > 100 | – | > 100 | – | > 100 | – | > 100 | – | > 100 | – | > 100 | – | > 100 | – | > 100 | – | > 100 | – | > 100 |
| C/C(=C1/N=C(c2cc([N+](=O)[O-])ccc2Cl)N(c2cccc(C)c2)C1=O)c1cc2ccccc2oc1=O | – | > 100 | – | > 100 | – | > 100 | – | > 100 | – | > 100 | – | > 100 | – | > 100 | – | > 100 | – | 77.3 | – | > 100 |
| O=C1CSCc2sccc21 | – | > 100 | – | > 100 | – | > 100 | – | > 100 | – | > 100 | – | > 100 | – | > 100 | – | > 100 | – | > 100 | – | > 100 |
| COC[C@@H](N=C1NC(=O)/C(=C/c2ccc3ncccc3c2)S1)c1ccccc1 | 4.25 | 12.5 | 6.72 | > 25 | 6.2 | > 22.4 | 11.7 | > 25 | 10.3 | > 25 | 10.8 | > 25 | 8 | > 25 | 8.19 | 17.2 | 8.09 | > 25 | 11.6 | > 25 |
| CCN1C(=S)N(c2ccccc2)C2NC(=S)N(/N=C/C=C/c3ccccc3OC)C21 (stereo not given) | 0.235 | 0.833 | 0.607 | > 100 | 0.298 | > 100 | 0.487 | > 100 | 0.302 | > 100 | 0.323 | > 64.8 | 0.37 | > 100 | 0.612 | > 100 | > 100 | > 100 | 0.421 | > 100 |
| COc1ccc(/C=C(/C#N)C(N)=O)c(OC)c1 | – | 25.7 | – | > 100 | – | > 100 | – | > 100 | – | > 100 | – | > 100 | – | > 100 | – | > 100 | – | > 100 | – | > 100 |
